In patent US5902817A, “Certain sulfoxide and sulfone derivatives” (priority 1997, dated 1999):
Where two headings read alike, the source gives them in different places. Where a SMILES comes first, the peptide text is derived from it.

What was measured:
NAALADase [1] = biological target: T1, NAALADase (Rattus norvegicus, UniProt P70627); assay: In Vitro Assay of NAALADase Activity ([3H]Glu liberated from [3H]NAAG, synaptosomal protein); assay type: biochemical; set-up: of synaptosomal protein; from tissue; host or cells: synaptosomal protein (brain tissue; rat by inference)
T1 sequence (P70627 whole entry): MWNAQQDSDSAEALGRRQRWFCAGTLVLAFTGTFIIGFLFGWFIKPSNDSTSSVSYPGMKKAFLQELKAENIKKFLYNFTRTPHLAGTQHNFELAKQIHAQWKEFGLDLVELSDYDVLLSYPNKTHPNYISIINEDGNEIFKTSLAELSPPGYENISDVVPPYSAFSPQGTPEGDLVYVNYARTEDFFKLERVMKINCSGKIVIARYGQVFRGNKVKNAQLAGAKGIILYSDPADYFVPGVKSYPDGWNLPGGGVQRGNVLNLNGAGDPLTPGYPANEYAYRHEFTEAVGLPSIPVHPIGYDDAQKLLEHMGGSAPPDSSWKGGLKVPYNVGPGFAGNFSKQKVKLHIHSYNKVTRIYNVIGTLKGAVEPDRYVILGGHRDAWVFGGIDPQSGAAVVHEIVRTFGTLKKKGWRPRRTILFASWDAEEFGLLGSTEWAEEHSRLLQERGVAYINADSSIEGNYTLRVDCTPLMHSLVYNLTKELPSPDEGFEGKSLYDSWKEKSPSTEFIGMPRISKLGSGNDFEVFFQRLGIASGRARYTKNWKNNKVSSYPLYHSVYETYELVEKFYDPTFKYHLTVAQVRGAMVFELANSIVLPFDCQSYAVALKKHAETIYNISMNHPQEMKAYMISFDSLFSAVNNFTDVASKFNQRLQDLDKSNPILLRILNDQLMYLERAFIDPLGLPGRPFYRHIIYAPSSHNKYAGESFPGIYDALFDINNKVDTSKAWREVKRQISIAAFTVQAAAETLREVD
Experimental: Substrate and product were resolved by anion-exchange liquid chromatography. […] Quisqualate (100 μM) was included in parallel assay tubes to confirm the specificity of the measurements.

cortical cell cultures = assay: In Vitro Toxicity of NAAG following Treatment with NAALADase Inhibitors (LDH release); assay type: cell-based, rat (Harlan Sprague Dawley); details: inhibitor 1 μM; NAAG 3 μM, n = 1
Experimental: Experiments are performed after 21 days in cultures.
At the end of exposure, the cells are washed once with HEPES buffered saline solution and then replaced with serum free modified Earle's basal medium. The cultures are then returned to the CO2 incubator for 24 hour recovery.
This control measurement is subtracted from each experimental point.

LNCAP cells = details: 7 days, mean +/- SEM
Experimental: On the 7th day, the cells are pulsed with 3H-thymidine for 4 hours, harvested and measured for radioactivity. Values represent means +/- SEM of 6 separate cell wells for each treatment. All experiments are performed at least twice.
LNCAP cells are obtained from Dr. William Nelson at the Johns Hopkins School of Medicine in Baltimore, Md. […] Cells are grown in RPMI-1640 media supplemented with 5% heat-inactivated fetal calf serum, 2 mM-glutamine, 100 units/ml penicillin, and 100 μg/ml streptomycin (Paragon) in a humidified incubator at 37° C. in a 5% CO2 /95% air atmosphere.
The cells are suspended at 1×10^3 cells/ml in RPMI-1640 media and seeded into 24-well plates at 500 μl per well. […] On days 3, 5 and 7, media and drug are refreshed. On the 8th day following seeding, each well is pulsed with 1 μCi ^3 H-thymidine (New England Nuclear) for 4 hours. Media is then removed and the wells washed 2 times with phosphate buffered saline (pH=7.4). […] 5 ml UltimaGold (Packard) scintillation cocktail is added and radioactivity is quantitated using a Beckman LS6001 scintillation counter.

[2] = system: injury to the cortex in rats following middle cerebral artery occlusion; details: n = 10
From the text: A colony of SHRSP rats is bred at Johns Hopkins School of Medicine from three pairs of male and female rats obtained from the National Institutes of Health (Laboratory, Sciences Section, Veterinary Resources Program, National Center for Research Resources, Bethesda, Md.). All rats are kept in a virus-free environment and maintained on regular diet (NIH 31, Zeigler Bros, Inc.) with water ad libitum. All groups of rats are allowed to eat and drink water until the morning of the experiment. […]
Arterial pH and PaCO2, and partial pressure of oxygen (PaO2) are measured with a self-calibrating Radiometer electrode system (ABL 3; Copenhagen, Denmark). Hemoglobin and arterial oxygen content are measured with a hemoximeter (Radiometer, Model OSM3; Copenhagen, Denmark). Blood glucose is measured with a glucose analyzer (model 2300A, Yellow Springs Instruments, Yellow Springs, Ohio).
Each group is exposed to 2 hours of right MCA occlusion and 22 hours of reperfusion. All variables but the rectal temperature are measured at baseline, at 15 minutes and 45 minutes of right MCA occlusion. The rectal temperature is measured at baseline, at 0 and 15 min of MCA occlusion, and at 0 and 22 hours of reperfusion.

[3] = In Vivo Toxicity of NAALADase Inhibitors (survival of mice); details: mouse, injected, read-out: Survival Rate After 5 days
From the text: The mice were subsequently observed two times per day for 5 consecutive days.

NAALADase [4] = biological target: T1, NAALADase; details: substrate NAAG; cited from earlier work

Structure (SMILES)	NAALADase inhibiting activity (in words) (NAALADase [1])	% Toxicity (cortical cell cultures) [%]	3H-Thymidine Incorporation (LNCAP cells; dose 10 pM) [dpm/well]	3H-Thymidine Incorporation (LNCAP cells; dose 100 pM) [dpm/well]	3H-Thymidine Incorporation (LNCAP cells; dose 1 nM) [dpm/well]	3H-Thymidine Incorporation (LNCAP cells; dose 10 nM) [dpm/well]	Cortical Injury Volume ± S.E.M. ([2]; 10 mg/kg followed by 2 mg/kg/hr for 1 hour) [mm^3]	Cortical Injury Volume ± S.E.M. ([2]; 100 mg/kg followed by 20 mg/kg/hr for one hour) [mm^3]	survival at 120 h ([3]; 1 mg/kg) [%]	survival at 120 h ([3]; 5 mg/kg) [%]	survival at 120 h ([3]; 10 mg/kg) [%]	survival at 120 h ([3]; 30 mg/kg) [%]	survival at 120 h ([3]; 100 mg/kg) [%]	survival at 120 h ([3]; 300 mg/kg) [%]	survival at 120 h ([3]; 500 mg/kg) [%]	Km (NAALADase [4]) [µM]
O=C(O)CCC(CP(=O)(O)O)C(=O)O (centres unmarked) [2-(phosphonomethyl)pentanedioic acid]	high NAALADase inhibiting activity	-4.71	3078 ± 1006	2062 ± 595	1001 ± 52	664 ± 366	135.00 ± 32.18	65.23 ± 32.18	100	100	100	100	100	100	66.7	–
CC(=O)N[C@@H](CC(=O)O)C(=O)N[C@@H](CCC(=O)O)C(=O)O [NAAG, N-acetyl-aspartyl-glutamate] (Ac-Asp-Glu-OH)	–	–	–	–	–	–	–	–	–	–	–	–	–	–	–	0.54
O=C(O)CCC(CP(=O)(O)CCC(=O)O)C(=O)O (centres unmarked) [2-[[2-carboxyethyl)hydroxyphosphinol]methyl]pentanedioic acid]	lower NAALADase inhibiting activity than 2-(phosphonomethyl)pentanedioic acid	–	–	–	–	–	–	–	–	–	–	–	–	–	–	–
